Test results reported in ChEMBL document CHEMBL1201862, “PubChem BioAssay data set” (2004).
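How tested: cells in 96-well plates exposed to compound for 48 hours at five concentrations. GI50 = concentration required for 50% inhibition of growth.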 Calls of active or inactive are those of the source. Cut-off read from the data, not from the text of the source: active = GI50 up to about 1.1 µM and inactive = higher.

Experiments:
Assay in all cases: NCI-60 cell line screen, 48 h
786-0 = test system: 786-0
A498 = test system: A498
HCT-15 = test system: HCT-15
Hs-578T = test system: Hs-578T
MDA-MB-435 = test system: MDA-MB-435
MDA-N = test system: MDA-N
NCI-H23 = test system: NCI-H23
OVCAR-3 = test system: OVCAR-3
OVCAR-4 = test system: OVCAR-4
OVCAR-5 = test system: OVCAR-5
SF-268 = test system: SF-268
SN12C = test system: SN12C
T47D = test system: T47D
U-251 = test system: U-251
UO-31 = test system: UO-31
CCRF-CEM = test system: CCRF-CEM
EKVX = test system: EKVX
HL-60 = test system: HL-60
RXF 393 = test system: RXF 393
SF-295 = test system: SF-295

Cc1ccc2c(c1)-c1nc(N)c(C#N)c(-c3ccccc3)c1CCS2(=O)=O
GI50 (786-0): 19 µM (inactive) | GI50 (A498): 28.8 µM (inactive) | GI50 (HCT-15): 44.1 µM | GI50 (Hs-578T): 20.8 µM (inactive) | GI50 (MDA-MB-435): > 100 µM (inactive) | GI50 (MDA-N): > 100 µM (inactive) | GI50 (NCI-H23): 87.9 µM (inactive) | GI50 (OVCAR-3): 29.5 µM (inactive) | GI50 (OVCAR-4): 16.7 µM (inactive) | GI50 (OVCAR-5): 55 µM (inactive) | GI50 (SF-268): 46.5 µM (inactive) | GI50 (SN12C): 41.4 µM (inactive) | GI50 (T47D): > 100 µM (inactive) | GI50 (U-251): 32.5 µM (inactive) | GI50 (UO-31): > 100 µM (inactive)

S=C1CSc2c(cnc3ccccc23)N1
GI50 (786-0): > 100 µM (inactive) | GI50 (CCRF-CEM): > 100 µM (inactive) | GI50 (EKVX): 76.4 µM (inactive) | GI50 (HCT-15): > 100 µM | GI50 (HL-60): > 100 µM (inactive) | GI50 (Hs-578T): 20 µM (inactive) | GI50 (MDA-MB-435): > 100 µM (inactive) | GI50 (MDA-N): > 100 µM (inactive) | GI50 (NCI-H23): > 100 µM (inactive) | GI50 (OVCAR-3): > 100 µM (inactive) | GI50 (OVCAR-4): > 100 µM (inactive) | GI50 (OVCAR-5): > 100 µM (inactive) | GI50 (RXF 393): 20 µM (inactive) | GI50 (SF-268): > 100 µM (inactive) | GI50 (SF-295): 52.2 µM (inactive) | GI50 (SN12C): > 100 µM (inactive) | GI50 (T47D): 80.5 µM (inactive) | GI50 (U-251): > 100 µM (inactive) | GI50 (UO-31): 65.6 µM (inactive)

CSc1ncnc2c1CCN2
GI50 (786-0): > 10 µM (inactive) | GI50 (CCRF-CEM): > 10 µM (inactive) | GI50 (EKVX): > 10 µM (inactive) | GI50 (HCT-15): > 100 µM | GI50 (HL-60): 4.29 µM (inactive) | GI50 (Hs-578T): 4.51 µM (inactive) | GI50 (MDA-MB-435): 2.21 µM (inactive) | GI50 (MDA-N): 3.4 µM (inactive) | GI50 (NCI-H23): 4.51 µM (inactive) | GI50 (OVCAR-3): 2.87 µM (inactive) | GI50 (OVCAR-4): > 10 µM (inactive) | GI50 (OVCAR-5): > 10 µM (inactive) | GI50 (RXF 393): > 10 µM (inactive) | GI50 (SF-268): > 10 µM (inactive) | GI50 (SF-295): 6.81 µM (inactive) | GI50 (SN12C): > 100 µM (inactive) | GI50 (T47D): > 10 µM (inactive) | GI50 (UO-31): 50.6 µM (inactive)

N#Cc1c(N)c2c(c(-c3ccccc3)c1-c1ccccc1)C(=O)N(N)C2=O
GI50 (786-0): 98.2 µM (inactive) | GI50 (CCRF-CEM): 42.7 µM (inactive) | GI50 (EKVX): > 100 µM (inactive) | GI50 (HCT-15): > 100 µM | GI50 (HL-60): 44 µM (inactive) | GI50 (Hs-578T): 60.1 µM (inactive) | GI50 (MDA-MB-435): > 100 µM (inactive) | GI50 (MDA-N): > 100 µM (inactive) | GI50 (NCI-H23): > 100 µM (inactive) | GI50 (OVCAR-3): > 100 µM (inactive) | GI50 (OVCAR-4): > 100 µM (inactive) | GI50 (OVCAR-5): > 100 µM (inactive) | GI50 (RXF 393): 58.7 µM (inactive) | GI50 (SF-268): > 100 µM (inactive) | GI50 (SF-295): 89.3 µM (inactive) | GI50 (SN12C): > 100 µM (inactive) | GI50 (T47D): 49.4 µM (inactive) | GI50 (U-251): > 100 µM (inactive) | GI50 (UO-31): 40.3 µM (inactive)

CCOC(=O)c1c[nH]c2c(Sc3ccccc3)nccc2c1=O
GI50 (786-0): > 100 µM (inactive) | GI50 (A498): > 100 µM (inactive) | GI50 (CCRF-CEM): 22.3 µM (inactive) | GI50 (EKVX): > 100 µM (inactive) | GI50 (HCT-15): > 100 µM | GI50 (HL-60): 27.5 µM (inactive) | GI50 (Hs-578T): > 100 µM (inactive) | GI50 (MDA-MB-435): 39.6 µM (inactive) | GI50 (MDA-N): > 100 µM (inactive) | GI50 (NCI-H23): 32.4 µM (inactive) | GI50 (OVCAR-3): > 100 µM (inactive) | GI50 (OVCAR-4): > 100 µM (inactive) | GI50 (OVCAR-5): > 100 µM (inactive) | GI50 (SF-268): > 100 µM (inactive) | GI50 (SF-295): > 100 µM (inactive) | GI50 (SN12C): > 100 µM (inactive) | GI50 (T47D): 18.3 µM (inactive) | GI50 (U-251): 44.4 µM (inactive) | GI50 (UO-31): 13.2 µM (inactive)

CCN(CC)C(=S)SS(=O)(=O)c1ccccc1C(=O)O
GI50 (786-0): > 100 µM (inactive) | GI50 (A498): > 38 µM (inactive) | GI50 (CCRF-CEM): 82 µM (inactive) | GI50 (EKVX): > 100 µM (inactive) | GI50 (HCT-15): > 100 µM | GI50 (Hs-578T): > 100 µM (inactive) | GI50 (MDA-MB-435): > 100 µM (inactive) | GI50 (MDA-N): > 100 µM (inactive) | GI50 (NCI-H23): > 100 µM (inactive) | GI50 (OVCAR-3): > 100 µM (inactive) | GI50 (OVCAR-4): > 100 µM (inactive) | GI50 (OVCAR-5): > 100 µM (inactive) | GI50 (RXF 393): > 70.3 µM (inactive) | GI50 (SF-268): 98.2 µM (inactive) | GI50 (SF-295): > 88.5 µM (inactive) | GI50 (SN12C): > 94.8 µM (inactive) | GI50 (T47D): > 36 µM (inactive) | GI50 (U-251): 99.8 µM (inactive) | GI50 (UO-31): > 94 µM (inactive)

Cc1cc(O)c2c(c1O)C(=O)c1cccc(O)c1C2=O [ISLANDICIN]
GI50 (786-0): > 100 µM (inactive) | GI50 (CCRF-CEM): > 100 µM (inactive) | GI50 (EKVX): > 100 µM (inactive) | GI50 (HCT-15): > 100 µM | GI50 (HL-60): 60.8 µM (inactive) | GI50 (Hs-578T): > 100 µM (inactive) | GI50 (MDA-MB-435): > 100 µM (inactive) | GI50 (MDA-N): > 100 µM (inactive) | GI50 (NCI-H23): > 100 µM (inactive) | GI50 (OVCAR-3): > 100 µM (inactive) | GI50 (OVCAR-4): > 100 µM (inactive) | GI50 (OVCAR-5): > 100 µM (inactive) | GI50 (RXF 393): > 100 µM (inactive) | GI50 (SF-268): > 100 µM (inactive) | GI50 (SF-295): > 100 µM (inactive) | GI50 (SN12C): > 100 µM (inactive) | GI50 (T47D): > 100 µM (inactive) | GI50 (U-251): > 100 µM (inactive) | GI50 (UO-31): > 100 µM (inactive)
